Laboratory results published in the METLIN SMRT retention time set (Domingo-Almenara et al. 2019).

Experiment: gradient 5% acetonitrile 3 min, to 50% in 2 min, to 85% in 15 min, held 3 min, 100 µL/min
Settings: column: Zorbax Extend-C18 2.1 x 50 mm; eluents: water / acetonitrile, 0.1% formic acid
How it was run: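 Data were gathered over 3 months by HPLC coupled to a quadrupole time-of-flight mass spectrometer, operated in positive and negative ionization mode. Mixtures of ~100 pure standards ran on a Zorbax Extend-C18 column (2.1 × 50 mm, 1.8 μm) at 100 μL/min, with water and acetonitrile each containing 0.1% formic acid and dead and dwell volumes of 40 μL and 900 μL. Retention time was read from adduct peaks picked by computer and checked manually.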

C[C@@H](NC(=O)c1cccc(F)c1)C(=O)NCc1cscn1
RP-LC retention time: 636 s

O=C(Nc1cccnc1)C1CCN(S(=O)(=O)Cc2ccccc2)CC1
RP-LC retention time: 626 s

CCN1CCN(CCCNC(=O)c2nc(-c3oc4ccccc4c3C)no2)CC1
RP-LC retention time: 621 s

O=C1COc2cc(S(=O)(=O)N3CCC(C(=O)N4CCOCC4)CC3)c(Cl)cc2N1
RP-LC retention time: 659 s

COc1ccc(NC(=O)C2CCN(c3cncnc3N3CCOCC3)CC2)cc1
RP-LC retention time: 605 s

CCN1C(=O)COc2ccc(-c3noc(Cc4ccc(OC)cc4)n3)cc21
RP-LC retention time: 1000 s

O=C(C1CCN(c2cn[nH]c(=O)c2)C1)N1CCCC1 (stereo not drawn)
RP-LC retention time: 571 s

O=C(NC1CCCCC1)N1CCCC(Cn2c(C3CC3)nc3cccnc32)C1 (stereo not drawn)
RP-LC retention time: 668 s

COC(=O)Nc1ccc(-c2nc(N3CCOCC3)c3cnn(C4CCN(Cc5cccnc5)CC4)c3n2)cc1
RP-LC retention time: 665 s

CCn1cnc(S(=O)(=O)N2CCCC(C(=O)Nc3ccccc3F)C2)c1 (stereo not drawn)
RP-LC retention time: 735 s

Cc1ccc(-c2nc(-c3ccc(-c4noc(CNS(=O)(=O)c5ccccc5)n4)cc3)cs2)s1
RP-LC retention time: 1290 s

CCN1CCN(CCNC(=O)c2cc3n(n2)CCCN(Cc2cccc(C)c2)C3=O)CC1
RP-LC retention time: 602 s

O=C(c1ccc2c(=O)n(Cc3ccccc3)c(N3CCCC3)nc2c1)N1CCN(c2ccccn2)CC1
RP-LC retention time: 655 s

CCCCNC(=O)CN1C(=O)C2CCCCN2c2ccc(S(=O)(=O)N3CCCC3)cc21 (stereo not drawn)
RP-LC retention time: 873 s

CCCN1N=C(C(=O)N2CCCCCC2)S(=O)(=O)c2ccc(C)cc21
RP-LC retention time: 991 s

O=C(NCc1ccco1)c1nn(-c2ccc(F)cc2)c2ccccc2c1=O
RP-LC retention time: 872 s

CCCCn1cc(S(=O)(=O)NCc2ccc(C)cc2)c2cccnc21
RP-LC retention time: 984 s

CN(C)CCNC(=O)c1cccc(Nc2c(-c3ccc(Cl)cc3)nc3cnccn23)c1
RP-LC retention time: 611 s

Cc1sc(NC(=O)C2CCCCC2)nc1-c1ccc2c(c1)N(C)C(=O)CO2
RP-LC retention time: 1040 s

Clc1ccc(Cc2nc(-c3cccc(-c4ccn[nH]4)c3)no2)cc1
RP-LC retention time: 1010 s

CCn1ccc(C(=O)N2CCCn3nc(-c4ccc(C)cc4)cc3C2)n1
RP-LC retention time: 805 s

CC(NC(=O)C1CCN(c2cnn(Cc3ccccc3)c(=O)c2)CC1)c1ccccc1 (stereo not drawn)
RP-LC retention time: 803 s

CCCOc1ccc(Nc2nc(C(=O)OCC)nc3ccccc23)cc1
RP-LC retention time: 941 s

COC(=O)c1cnc2nc(C)ccc2c1Nc1ccc2c(c1)OCCO2
RP-LC retention time: 652 s

Cc1c(C(=O)NC2CCCC2)cnn1-c1ccc(-c2nc(C(C)C)no2)cn1
RP-LC retention time: 741 s

CCCNc1cc(N2CCC(CCC(=O)Nc3ccc(OC)cc3OC)CC2)ncn1
RP-LC retention time: 648 s

Cc1cccc(-c2nnc(-c3cc(S(=O)(=O)N4CCOCC4)ccc3Cl)o2)c1
RP-LC retention time: 992 s

O=C(NCc1ccc(F)cc1)Nc1cccn2ncnc12
RP-LC retention time: 718 s

CCCNC(=O)C1CCCN(c2ccc(SCC(=O)Nc3cc(C)cc(C)c3)nn2)C1 (stereo not drawn)
RP-LC retention time: 721 s

Cc1ccccc1N1CCN(C(=O)c2ccc(CN3CCN(C(C)C)C(=O)C3=O)cc2)CC1
RP-LC retention time: 811 s

CCOc1nc2ccccc2nc1N1CCCC(C(=O)N2CCSCC2)C1 (stereo not drawn)
RP-LC retention time: 1150 s

CCOC(=O)c1cnc2nc(C)ccc2c1Nc1ccccc1F
RP-LC retention time: 684 s

COc1ccccc1-c1nc(Cn2nnc(-c3nc(-c4ccc(C(F)(F)F)cc4)no3)c2C)c(C)o1
RP-LC retention time: 1240 s

COc1cc([C@@H]2c3cc4c(cc3[C@H](O)[C@@H](CO)[C@@H]2C(=O)NCc2ccccc2)OCO4)cc(OC)c1OC
RP-LC retention time: 700 s

Cc1ccc(C(=O)NC2CCCCCCC2)cc1NC(=O)C1=CSCCO1
RP-LC retention time: 949 s

CNC(=O)c1cnn(-c2nc(N)c3ncn([C@@H]4O[C@H](CO)C(O)C4O)c3n2)c1 (stereo partly drawn)
RP-LC retention time: 586 s

Cc1ccc(-n2nc(N3CCCC(C(=O)Nc4cc(F)ccc4F)C3)ccc2=O)cc1Cl (stereo not drawn)
RP-LC retention time: 1060 s

CS(=O)(=O)c1ccc(-c2ccc(NC(=O)c3cccs3)cc2)nn1
RP-LC retention time: 698 s

Cn1nc2c(c1NC(=O)c1ccc(Cl)s1)CCC2
RP-LC retention time: 724 s

O=C(NCc1ccccc1Cl)C1CCN(C(=O)c2sccc2-n2cccc2)CC1
RP-LC retention time: 863 s

CCOC(=O)CNC(=O)N1CCN(Cc2nc3cccnc3n2-c2ccc(CC)cc2)CC1
RP-LC retention time: 654 s

CCCCn1cc(S(=O)(=O)Nc2cccc(CC)c2)c2cccnc21
RP-LC retention time: 1070 s

COc1cccc(CCC(=O)N2C[C@@H]3C[C@H](NC(=O)c4ccccc4)[C@H]2C3)c1
RP-LC retention time: 793 s

Cc1ccccc1CNc1nnc(-c2nc(C3CC3)no2)c2ccccc12
RP-LC retention time: 936 s

CCn1cnnc1C1CCCN(C(=O)CCc2c[nH]c3ccccc23)C1 (stereo not drawn)
RP-LC retention time: 612 s

CCc1nnc(-c2cc(NS(C)(=O)=O)c(C)s2)o1
RP-LC retention time: 747 s

CCC(NC(=O)C1CCN(c2nnc(-c3ccc(OC)cc3)o2)CC1)c1cccs1 (stereo not drawn)
RP-LC retention time: 863 s

CC(C)CCNC(=O)CCC(=O)N1CCCn2nc(-c3cn(C)c4ccccc34)cc21
RP-LC retention time: 778 s

CC(C(=O)N1CCN(C)CC1)n1c2ccccc2c2cnn(C)c(=O)c21 (stereo not drawn)
RP-LC retention time: 612 s

CCc1nn2c(CNS(=O)(=O)c3ccccc3)c(-c3ccccc3)nc2s1
RP-LC retention time: 901 s

CN1c2ccc(Cl)cc2C(=O)NC12CCN(C(=O)NCCc1ccccc1)CC2
RP-LC retention time: 819 s

Cn1nc(N2CCC(NC(=O)C3CCCCC3)C2)ccc1=O (stereo not drawn)
RP-LC retention time: 649 s

O=C(N[C@H]1C[C@@H]2C[C@H]1CN2C(=O)c1ccc(F)c(Cl)c1)c1ccccc1
RP-LC retention time: 772 s

Cc1cc(S(=O)(=O)N2CCOC23CCN(C(=O)C2CC2)CC3)ccc1F
RP-LC retention time: 789 s

CCOC(=O)c1c(C)[nH]c(C(=O)N2CCC(CC(=O)N3CCCCC3)CC2)c1C
RP-LC retention time: 741 s

CCc1ccc(S(=O)(=O)NCC2CCN(C(=O)Nc3ccccc3OC)CC2)s1
RP-LC retention time: 878 s

Cc1cccc(C)c1-n1ccn(Cc2nc(-c3ccccn3)no2)c(=O)c1=O
RP-LC retention time: 695 s

O=C(NCC1CCCO1)C1CCCN(c2ccc(Sc3ccc(Br)cc3)nn2)C1 (stereo not drawn)
RP-LC retention time: 793 s

Cc1ccc(-c2noc(Cc3nc(-c4ccc(Cl)cc4)cs3)n2)cc1
RP-LC retention time: 1040 s

Cc1ccc2nc3c(C(=O)NC4CC4)cccn3c(=O)c2c1
RP-LC retention time: 942 s

O=C(Cn1ncc2c(N3CCN(c4ccccn4)CC3)ncnc21)Nc1ccccc1Cl
RP-LC retention time: 564 s

Cc1cccc2c(C(=O)NC(C)C)cc(N3CCCC3)nc12
RP-LC retention time: 611 s

Cc1cc(-c2c(C)sc(C)c2S(=O)(=O)NCc2ccccc2Cl)n[nH]1
RP-LC retention time: 1060 s

CCC(C)C(NC(=O)Cc1ccc(Cl)cc1)C(=O)Nc1nc2ccccc2[nH]1 (stereo not drawn)
RP-LC retention time: 785 s

Cn1c(=O)oc2cc(-c3noc(-c4cc(F)ccc4F)n3)ccc21
RP-LC retention time: 1010 s

CSc1cccc(NC(=O)CCCn2nc(-n3cccc3)c3c(C)cc(C)nc32)c1
RP-LC retention time: 1040 s

COc1ccc(-c2ccnc3nc(-c4ccccc4OC)nn23)cc1OC
RP-LC retention time: 804 s

CCCN1C(=O)COc2ccc(-c3csc(NC(=O)c4ccc(OC)c(OC)c4)n3)cc21
RP-LC retention time: 971 s

CCn1cc(C(=O)Nc2ccc(C)c(C)c2)c(S(=O)(=O)N2CCSCC2)n1
RP-LC retention time: 1050 s

COC(=O)c1c(NCc2ccccc2Cl)c2ccccc2[nH]c1=O
RP-LC retention time: 766 s

NS(=O)(=O)c1ccc(CNC(=O)CCCn2cnc(-c3ccc(F)cc3)cc2=O)cc1
RP-LC retention time: 652 s

CN(CC(=O)NCc1ccncc1)c1nc2c(Cl)cccc2s1
RP-LC retention time: 564 s

O=C(COc1ccccc1-c1nnc(-c2ccccc2)o1)Nc1ccc2c(c1)OCO2
RP-LC retention time: 1100 s

O=C(Cc1ccc(Cl)cc1)N1CCN(c2cc(-c3cccnc3)[nH]n2)CC1
RP-LC retention time: 636 s

Cc1ccc(CNC(=O)C2(C)CN(S(C)(=O)=O)CC(=O)N2CCc2ccccc2)cc1 (stereo not drawn)
RP-LC retention time: 856 s

CCOC(=O)c1c(C)[nH]c(C(=O)N2CCCC(C(=O)NCc3ccco3)C2)c1C (stereo not drawn)
RP-LC retention time: 722 s

C=CCN1C(=O)COc2ccc(-c3csc(NC(=O)c4ccc(Cl)cc4)n3)cc21
RP-LC retention time: 1100 s

O=S(=O)(c1cc(-c2nnc(-c3ccc(F)cc3)o2)ccc1Cl)N1CCCCC1
RP-LC retention time: 1190 s

O=C(c1ccco1)N1CCCn2nc(-c3cccs3)cc2C1
RP-LC retention time: 750 s

CCc1ccc(CN2C(=O)c3ccccc3C2C(=O)NCC2CCCO2)cc1 (stereo not drawn)
RP-LC retention time: 830 s

COc1ccc(-c2ncc3c(n2)CCN(S(=O)(=O)c2ccc4c(c2)CCC4)C3)cc1
RP-LC retention time: 1160 s

O=C1COc2cc(S(=O)(=O)N3CCC(C(=O)N4CCc5ccccc5C4)CC3)c(Cl)cc2N1
RP-LC retention time: 838 s

CCc1ccc(OCC(=O)OCCNC(=O)c2ccncc2)cc1
RP-LC retention time: 673 s

CCOc1ccc(C(=O)N2CCC3(C2)C(=O)Nc2ccccc23)cc1 (stereo not drawn)
RP-LC retention time: 725 s

O=C(CC1CCN(C(=O)c2ccc3oc(-c4ccccc4)nc3c2)CC1)N1CCOCC1
RP-LC retention time: 682 s

CC(C)c1noc(-c2cc(=O)n(CC(=O)NCc3ccccc3F)c3ccccc23)n1
RP-LC retention time: 959 s

CCc1ccc(NC(=O)Cn2cnc3onc(C)c3c2=O)cc1
RP-LC retention time: 843 s

O=C(Nc1ccccc1C(F)(F)F)N1CCCC1c1nc(-c2ccc(F)cc2F)no1 (stereo not drawn)
RP-LC retention time: 1030 s
